PMC5713445, “Ergostane-Type Sterols from King Trumpet Mushroom (Pleurotus eryngii) and Their Inhibitory Effects on Aromatase” (International Journal of Molecular Sciences, 2017)

Molecular target: T1, human recombinant aromatase (Homo sapiens, UniProt P11511)
T1 sequence (P11511 1-503): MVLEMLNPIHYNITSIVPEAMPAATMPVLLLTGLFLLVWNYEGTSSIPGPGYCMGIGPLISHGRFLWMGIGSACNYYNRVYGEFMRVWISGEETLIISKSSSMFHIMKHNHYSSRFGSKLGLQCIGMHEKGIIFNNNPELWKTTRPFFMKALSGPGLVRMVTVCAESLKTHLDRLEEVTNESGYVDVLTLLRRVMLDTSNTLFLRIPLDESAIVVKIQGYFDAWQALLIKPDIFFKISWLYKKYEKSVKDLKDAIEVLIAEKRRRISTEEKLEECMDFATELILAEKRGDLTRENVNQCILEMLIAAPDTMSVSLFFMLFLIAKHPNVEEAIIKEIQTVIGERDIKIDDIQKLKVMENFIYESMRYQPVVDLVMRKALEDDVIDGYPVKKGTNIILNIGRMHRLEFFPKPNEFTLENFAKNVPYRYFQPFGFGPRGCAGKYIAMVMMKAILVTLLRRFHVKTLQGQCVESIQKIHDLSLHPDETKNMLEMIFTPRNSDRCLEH
Assay: Inhibitory assay against human recombinant aromatase (Human CYP19 + P450 Reductase SUPERSOMES, dibenzylfluorescein)
Type: biochemical
Conditions: for aromatase inhibitory activity (in words): tested at 10, 30 and 100 µM (4, 6: 1, 3 and 10 µM); for IC50: three determinations
Text: Each value represents the mean ± the standard error (S.E.) of three determinations.
Dibenzylfluorescein (DBF) and Human CYP19 + P450 Reductase SUPERSOMES (human recombinant aromatase) were obtained from BD Biosciences (Heidelberg, Germany). The physical data were obtained by the following instruments: a Yanagimoto micro-melting point apparatus for melting points (uncorrected); a JASCO DIP-1000 digital polarimeter for Optical rotations; a Perkin-Elmer 1720X FTIR spectrophotometer for IR spectra; an Agilent-NMR-vnmrs600 for the ^1H and ^13C NMR spectra (^1H: 600 MHz; ^13C: 150 MHz) in CDCl3 with tetramethylsilane as the internal standard; a Hitachi M-4000H double-focusing mass spectrometer for EIMS (70 eV). Column chromatography was carried out by Silica gel (70–230 mesh, Merck, Darmstadt, Germany) and silica gel 60 (230–400 mesh, Nacalai Tesque, Inc., Kyoto, Japan). HPLC was performed by the following systems; system I: Cosmosil 5SL-II column (25 cm × 20 mm i.d.) (Nacalai Tesque, Inc.), hexane/EtOAc (5:1), 8.0 mL/min, 35 °C; system II: Shimpack PREP-ODS (25 cm × 20 mm i.d.) (Shimadzu corp., Kyoto, Japan), MeOH, 8.0 mL/min, 35 °C; system III: Cosmosil 5C18-MS-II column (25 cm × 20 mm i.d.) (Nacalai Tesque, Inc.), MeOH/H2O (95:5), flow rate, 4.0 mL/min, 35 °C; system IV: Cosmosil 5C18-MS-II column, MeOH/H2O (9:1), 4.0 mL/min, 35 °C.
Inhibitory assay against human recombinant aromatase was performed as described previously.

IC50 [µM] | Compound | aromatase inhibitory activity (in words)
– | 5α,6α-epoxyergost-8(14)-ene-3β,7α-diol [Compound 2] | weakly inhibited aromatase
17.3 | CC(C)[C@@H](C)/C=C/[C@@H](C)[C@H]1CC=C2C3=C(CC[C@@]21C)[C@@]1(C)CC[C@H](O)C[C@@]12O[C@H]2[C@@H]3O [Compound 1, (22E)-5α,6α-epoxyergosta-8,14,22-triene-3β,7β-diol] | –
66.1 | CC(C)[C@@H](C)/C=C/[C@@H](C)[C@H]1CC[C@H]2C3=CCC4C[C@@H](O)CC[C@]4(C)[C@H]3CC[C@]12C (stereo partly drawn) [Compound 3, (22E)-Ergosta-7,22-dien-3β-ol] | –
8.1 | CC(C)[C@@H](C)/C=C/[C@@H](C)[C@H]1CC[C@H]2C3=CC=C4C[C@@H](O)CC[C@]4(C)[C@H]3CC[C@]12C [Compound 4, (22E)-ergosta-5,7,22-trien-3β-ol] | comparable aromatase inhibitory activities to aminoglutethimide
33.8 | CC(C)[C@@H](C)/C=C/[C@@H](C)[C@H]1CC[C@H]2c3ccc4c(c3CC[C@]12C)CC[C@H](O)C4 [Compound 5, (22E)-19-norergosta-5,7,9,22-tetraen-3β-ol] | –
32.6 | CC(C)[C@@H](C)/C=C/[C@@H](C)[C@H]1CC[C@@H]2[C@]1(C)CC=C1[C@]23C=C[C@]2(C[C@@H](O)CC[C@]12C)OO3 [Compound 10, 9,11-dehydroergosterol peroxide] | –

Compound | IC50 [µM] | aromatase inhibitory activity (in words)
CO[C@@H]1C=C2[C@@H]3CC[C@H]([C@H](C)/C=C/[C@H](C)C(C)C)[C@@]3(C)CC[C@@H]2[C@@]2(C)CC[C@H](O)C[C@]12O [Compound 6, (22E)-6β-methoxyergosta-7,22-diene-3β,5α-diol] | 2.8 | comparable aromatase inhibitory activities to aminoglutethimide
CC(C)[C@@H](C)/C=C/[C@@H](C)[C@H]1CC[C@H]2C3=CC(=O)[C@@]4(O)C[C@@H](O)CC[C@]4(C)[C@@]3(O)CC[C@]12C [Compound 7, (22E)-3β,5α,9α-trihydroxyergosta-7,22-dien-6-one] | > 100 | weakly inhibited aromatase
CC(C)[C@@H](C)/C=C/[C@@H](C)[C@H]1CC[C@H]2C3=CC(=O)[C@@]4(O)C[C@@H](O)CC[C@]4(C)[C@H]3CC[C@]12C [Compound 8, (22E)-3β,5α-dihydroxyergosta-7,22-dien-6-one] | > 100 | weakly inhibited aromatase
CC(C)[C@@H](C)/C=C/[C@@H](C)[C@H]1CC[C@@H]2[C@]1(C)CC[C@H]1[C@]23C=C[C@]2(C[C@@H](O)CC[C@]12C)OO3 [Compound 9, ergosterol peroxide] | > 100 | weakly inhibited aromatase
